We go through 23 compounds from US20230357232A1, “IMIDAZO[1,2-A]PYRIDINE COMPOUND AND PEST CONTROL AGENT” (Nippon Soda Co., Ltd., priority 2020, published 2023).

Structures are written as SMILES. Some results are limits rather than exact numbers.

One series concerns Plutella xylostella. As to the kind of experiment: Test of efficacy on Plutella xylostella (cabbage leaf dip). The format is in vivo. Conditions: foliar, 72 h, cabbage leaves dipped 30 seconds, second instar larvae, after 3 days, 25° C., read-out: insecticidal rate. As for the experimental part:
(§1) 5 parts of the imidazo[1,2-a]pyridine compound of the present invention, 93.6 parts of dimethylformamide, and 1.4 parts of polyoxyethylene alkyl aryl ether were mixed and dissolved to prepare emulsion (I) containing 5% of the active ingredient.
(§2) An insecticidal rate was calculated according to the following expression: […]
The emulsion (I) was diluted with water such that the concentration of the compound of the present invention was 125 ppm. Cabbage leaves were dipped in the dilution for 30 seconds. The resulting cabbage leaves were placed in a petri dish. Five second instar larvae of Plutella xylostella were released thereto. The petri dish was placed in a thermostat chamber having a temperature of 25° C. and a humidity of 60%. Life and death were determined after 3 days from the release of the insects, and the insecticidal rate was calculated. The test was conducted in duplicate.

In another series the test system is Phyllotreta striolata. Description: Test of efficacy on Phyllotreta striolata (spray on Qing geng cai seedlings). The conditions noted are these: 168 h, 125 ppm sprayed to Qing geng cai seedlings, adults, after 7 days, 25° C., read-out: insecticidal rate. The class given is in vivo. Here is the method: as §1, §2
The emulsion (I) was diluted with water such that the concentration of the compound of the present invention was 125 ppm to prepare a test chemical. The test chemical was sprayed to Qing geng cai seedlings (at the seventh true leaf stage) planted in 10-cm pots. The Qing geng cai seedlings were dried in air and then placed in a plastic cup. Ten Phyllotreta striolata adults were released thereto. The plastic cup was stored in a thermostat chamber having a temperature of 25° C. and a humidity of 65%. Life and death were determined after 7 days from the release of the insects, and the insecticidal rate was calculated. The test was conducted in duplicate.

In the case of `CCS(=O)(=O)c1c(-n2cc(-c3ccc(OC(F)(F)F)cc3)cn2)nc2ccc(C(F)(F)F)cn12` [a-9], the pest or weed control at 125 ppm in the series on Plutella xylostella is not below 80%.

`CCS(=O)(=O)c1c(-c2ncc(C=C(Br)Br)n2C)nc2ccc(C(F)(F)F)cn12` [a-14]: the melting point lay in the range of 233 to 235 °C.

Consider `CCS(=O)(=O)c1c(-c2ncc(/C=C(/F)C(F)(F)C(F)(F)F)n2C)nc2ccc(C(F)(F)F)cn12` [a-16], for which the pest or weed control at 125 ppm in the series on Phyllotreta striolata is not below 80%.

Turning to `CCS(=O)(=O)c1c(-c2ncc(-c3ccc(OC(F)(F)F)c(Cl)c3)n2C)nc2ccc(C(F)(F)F)cn12` [a-7], the pest or weed control at 125 ppm in the series with Phyllotreta striolata and with Plutella xylostella was not below 80% each time.

Consider `CCS(=O)(=O)c1c(-c2ncc(-c3ccc(C(F)(F)F)nc3)n2C)nc2ccc(C(F)(F)F)cn12` [a-2], for which the pest or weed control at 125 ppm with Phyllotreta striolata and with Plutella xylostella was not below 80% each time.

Regarding `CCS(=O)(=O)c1c(-c2ncc(C=C(Cl)C(F)(F)F)n2C)nc2cc(C3CC3)ccn12` [a-21], the pest or weed control at 125 ppm in the series on Phyllotreta striolata and with Plutella xylostella was not below 80% throughout.

For the compound `CCS(=O)(=O)c1c(-c2ncc(C=C(Cl)C(F)(F)F)n2C)nc2ccc(Cl)cn12` [a-23], the pest or weed control at 125 ppm in the series with Phyllotreta striolata and in the series on Plutella xylostella was not below 80% each time.

In the case of `CCS(=O)(=O)c1c(-c2cn(CC(F)(F)C(F)(F)C(F)(F)F)cn2)nc2ccc(C(F)(F)F)cn12` [a-12], the pest or weed control at 125 ppm with Phyllotreta striolata and in the series with Plutella xylostella was not below 80% throughout.

For the compound `CCS(=O)(=O)c1c(-c2ncc(C=C(Cl)C(F)(F)F)n2C)nc2cc(Cl)ccn12` [a-22], the pest or weed control at 125 ppm in the series on Phyllotreta striolata and in the series on Plutella xylostella was not below 80% in each case.

As to `CCS(=O)(=O)c1c(-c2ncc(C=C(F)C(F)(F)C(F)(F)F)n2C)nc2ccc(C(F)(F)F)cn12` [a-20], the pest or weed control at 125 ppm in the series with Phyllotreta striolata and with Plutella xylostella was not below 80% in each case.

For the compound `CCS(=O)(=O)c1c(-c2ncc(-c3ccc(OC(F)(F)F)cc3)n2C)nc2ccc(C(F)(F)F)cn12` [a-3, 3-(ethylsulfonyl)-2-(1-methyl-5-(4-(trifluoromethoxy)phenyl)-1H-imidazol-2-yl)-6-(trifluoromethyl)imidazo[1,2-a]pyridine], the pest or weed control at 125 ppm with Phyllotreta striolata and with Plutella xylostella was not below 80% in each case.

Take `CCS(=O)(=O)c1c(-c2ncc(/C=C/C(F)(F)C(F)(F)F)n2C)nc2ccc(C(F)(F)F)cn12` [a-13]: the pest or weed control at 125 ppm in the series on Phyllotreta striolata and in the series with Plutella xylostella was not below 80% in each case.

Consider `CCS(=O)(=O)c1c(-c2cn(-c3ccc(OC(F)(F)F)cc3)cn2)nc2ccc(C(F)(F)F)cn12` [a-5], for which the pest or weed control at 125 ppm in the series with Phyllotreta striolata and with Plutella xylostella was not below 80% in each case.

As for `CCS(=O)(=O)c1c(-c2ncc(C=C(Cl)Cl)n2C)nc2ccc(C(F)(F)F)cn12` [a-15], the melting point was in the range of 236 to 238 °C.

For `CCS(=O)(=O)c1c(-c2cn(/C=C(\F)C(F)(F)C(F)(F)F)cn2)nc2ccc(C(F)(F)F)cn12` [a-11], the pest or weed control at 125 ppm in the series with Phyllotreta striolata and in the series on Plutella xylostella was not below 80% each time.

As for `CCS(=O)(=O)c1c(-c2ncc(/C=C(\Cl)C(F)(F)F)n2C)nc2cc(C(F)(F)F)ccn12` [a-24], the pest or weed control at 125 ppm with Plutella xylostella was not below 80%.

As to `CCS(=O)(=O)c1c(-c2ncn(-c3ccc(OC(F)(F)F)cc3)n2)nc2ccc(C(F)(F)F)cn12` [a-6], the pest or weed control at 125 ppm with Phyllotreta striolata and with Plutella xylostella was not below 80% in each case.

Regarding `CCS(=O)(=O)c1c(-c2ncc(-c3ccc(C(F)(F)F)c(Cl)c3)n2C)nc2ccc(C(F)(F)F)cn12` [a-8], the pest or weed control at 125 ppm in the series on Plutella xylostella was not below 80%.

Take `CCS(=O)(=O)c1c(-c2ncc(-c3ccc(OC(F)(F)F)cc3)n2C)nc2cc(C(F)(F)F)ccn12` [a-10]: the pest or weed control at 125 ppm in the series with Phyllotreta striolata and in the series with Plutella xylostella was not below 80% each time.

Turning to `CCS(=O)(=O)c1c(-c2ncc(C=C(F)C(F)(F)C(F)(F)F)n2C)nc2cc(C(F)(F)F)ccn12` [a-19], the pest or weed control at 125 ppm in the series with Phyllotreta striolata and with Plutella xylostella was not below 80% throughout.

Regarding `CCS(=O)(=O)c1c(-c2ncc(/C=C(\F)C(F)(F)C(F)(F)F)n2C)nc2ccc(C(F)(F)F)cn12` [a-17], the pest or weed control at 125 ppm with Phyllotreta striolata and in the series on Plutella xylostella was not below 80% throughout.

As for `CCS(=O)(=O)c1c(-c2ncc(-c3ccc(OC(F)(F)C(F)F)cc3)n2C)nc2ccc(C(F)(F)F)cn12` [a-1], the pest or weed control at 125 ppm in the series on Plutella xylostella is not below 80%.

On to `CCS(=O)(=O)c1c(-c2ncc(C(F)C(F)(C(F)(F)F)C(F)(F)F)n2C)nc2ccc(C(F)(F)F)cn12` (centres unmarked) [a-4], for which the pest or weed control at 125 ppm with Plutella xylostella is not below 80%.
